The numbers were not newly measured in patent publication US20200308123A1, “Novel formulation of metaxalone” (ICEUTICA PTY LTD., priority 2009, published 2020), which cites them from elsewhere.

Read-outs that look alike come from different tables or passages of the source.

Data set [1] concerns major CYP enzymes such as CYP1A2, CYP2A6, CYP2B6, CYP2C8, CYP2C9, CYP2C19, CYP2D6, CYP2E1, and CYP3A4.
The test system of data set [2] is Hepatic Cytochrome P450 enzymes.
Data set [3] concerns major CYP enzymes such as CYP1A2, CYP2B6, and CYP3A4. To be noted: in vitro.

`Cc1cc(C)cc(OCC2CNC(=O)O2)c1` (stereo not drawn) [Metaxalone]: the “lipophilicity (log P)” value is 2.42. Further, the solubility result (in 96% ethanol) is “soluble”. In addition, the solubility result (in chloroform) is recorded as “freely soluble”. For the same compound, for the setting “in ether”, the solubility result is reported as “practically insoluble”. Also, for the setting “in methanol”, the solubility result is recorded as “soluble”. For the same compound, where the note is “in water”, the solubility result was “practically insoluble”. Further, in data set [1], the “inhibition of major CYP enzymes” value was “does not significantly inhibit”. The “CYP enzymes that appear to metabolize metaxalone” value in data set [2] was “CYP1A2, CYP2D6, CYP2E1, and CYP3A4 and, to a lesser extent, CYP2C8, CYP2C9, and CYP2FC19”. In addition, the “induction of major CYP enzymes” value in data set [3] was “does not significantly induce”.
